For two molecules, IC50 results are on record in patent US6828338B2, “Substituted polycyclic aryl and heteroaryl pyridines useful for selective inhibition of the coagulation cascade” (Pharmacia Corporation, priority 2000, dated 2004).

This test has as its target T1, Human factor Xa (Homo sapiens, UniProt P00742).
T1 construct: leads from XII to XIIa to XIa to IXa and to the conversion of X to Xa; purchased Enzyme Research Laboratories, South Bend Ind
Put plainly: Xa Assay. In kind it is biochemical. On the procedure: Human factor Xa (0.3 nM) and 0.15 mM N-a-Benzyloxycarbonyl-D-arginyl-L-glycyl-L-arginine-p-nitroaniline-dihydrochloride (S-2765) are added to a 96-well assay plate containing either inhibitor or buffer (50 mM Tris-HCl, pH 8.0, 100 mM NaCl, 0.1% BSA). The reaction, in a final volume of 100 ul is measured immediately at 405 nm to determine background absorbance. The plate is incubated at room temperature for 60 min, at which time the rate of hydrolysis of the substrate is measured by monitoring the reaction at 405 nm for the release of p-nitroaniline. Percent inhibition of Xa activity is calculated from OD405 nm value from the experimental and control sample.
Recombinant soluble TF, consisting of amino acids 1-219 of the mature protein sequence was expressed in E. coli and purified using a Mono Q Sepharose FPLC. Recombinant human VIIa was purchased from American Diagnostica, Greenwich Conn. and chromogenic substrate N-Methylsulfonyl-D-phe-gly-arg-p-nitroaniline was prepared by American Peptide Company, Inc., Sunnyvale, Calif. Factor Xa was obtained from Enzyme Research Laboratories, South Bend Ind., thrombin from Calbiochem, La Jolla, Calif., and trypsin and L-BAPNA from Sigma, St. Louis Mo. The chromogenic substrates S-2765 and S-2238 were purchased from Chromogenix, Sweden.

T1 sequence (P00742 235-488 limits assumed): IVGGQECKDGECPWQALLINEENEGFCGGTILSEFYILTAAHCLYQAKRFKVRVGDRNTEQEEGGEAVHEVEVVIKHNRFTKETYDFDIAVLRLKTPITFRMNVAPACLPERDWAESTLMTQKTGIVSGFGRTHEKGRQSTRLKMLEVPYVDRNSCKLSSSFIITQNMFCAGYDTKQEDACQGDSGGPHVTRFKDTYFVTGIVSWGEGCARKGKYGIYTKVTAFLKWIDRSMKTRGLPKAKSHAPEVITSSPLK
T1 sequence (P00742 41-179 limits assumed): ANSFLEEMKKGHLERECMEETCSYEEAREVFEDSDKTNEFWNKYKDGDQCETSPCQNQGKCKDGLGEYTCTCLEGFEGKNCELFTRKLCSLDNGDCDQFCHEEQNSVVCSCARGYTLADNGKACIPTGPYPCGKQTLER

As usually defined, the IC50 is the concentration at which inhibition is half-maximal. The molecule `CC(C)Nc1ccc(-c2cc(N)cc(N)c2)c(CC(=O)NCc2ccc(C(=N)N)cc2)[n+]1[O-]` [Example 7] gave an IC50 greater than 100 µM. With `CC(C)Nc1ccc(/C=C/c2ccccc2)c(CC(=O)NCc2ccc(C(=N)N)cc2)[n+]1[O-]` [Example 12] the figure was greater than 100 µM.
